Experiment [1] addresses T1, human GIP receptor (hGIPR) (Homo sapiens, UniProt P48546).
T1 construct: expressed in transfected cells; crude membranes
T1 sequence (P48546 22-466): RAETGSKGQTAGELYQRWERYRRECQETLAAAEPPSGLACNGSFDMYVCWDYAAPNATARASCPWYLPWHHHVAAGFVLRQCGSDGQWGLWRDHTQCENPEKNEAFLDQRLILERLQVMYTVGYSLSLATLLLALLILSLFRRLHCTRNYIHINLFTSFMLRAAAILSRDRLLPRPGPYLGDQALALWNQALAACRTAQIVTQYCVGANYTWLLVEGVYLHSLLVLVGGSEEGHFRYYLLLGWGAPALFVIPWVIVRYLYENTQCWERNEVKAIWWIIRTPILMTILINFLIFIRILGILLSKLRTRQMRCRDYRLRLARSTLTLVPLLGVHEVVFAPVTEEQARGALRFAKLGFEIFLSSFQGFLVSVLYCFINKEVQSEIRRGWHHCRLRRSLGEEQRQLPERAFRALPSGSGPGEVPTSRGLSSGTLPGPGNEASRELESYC
Description: [125I]-GIP binding, SPA with membranes of CHO cells expressing hGIPR. Particulars: for Ki: human GIPR, geometric mean (SEM, n), read-out: Binding Affinity Ki, nM (SEM, n) hGIPR. On the procedure:
Two methods are used for the preparation of crude cell membranes.
Method 1: Frozen cell pellets are lysed on ice in hypotonic buffer containing 50 mM Tris HCl, pH 7.5, and Roche Complete™ Protease Inhibitors with EDTA. […] The homogenate is centrifuged at 4° C. at 1100 × g for 10 minutes. The supernatant is collected and stored on ice while the pellets are resuspended in homogenization buffer and rehomogenized as described above. The homogenate is centrifuged at 1100 × g for 10 minutes. The second supernatant is combined with the first supernatant and centrifuged at 35000 × g for 1 hour at 4° C. The resulting membrane pellet is resuspended in homogenization buffer containing protease inhibitors at approximately 1 to 3 mg/mL, quick frozen in liquid nitrogen and stored as aliquots in a -80° C. freezer until use.
The homogenate is centrifuged at 4° C. at 1800 × g for 15 minutes. The supernatant is collected and stored on ice while the pellets are resuspended in homogenization buffer (without DNAse I) and rehomogenized as described above. The homogenate is centrifuged at 1800 × g for 15 minutes. The second supernatant is combined with the first supernatant and centrifuged an additional time at 1800 × g for 15 minutes. The overall supernatant is then centrifuged at 25000 × g for 30 minutes at 4° C. The resulting membrane pellet is resuspended in homogenization buffer (without DNAse I) containing protease inhibitors at approximately 1 to 3 mg/mL and stored as aliquots in a -80° C. freezer until use.
The binding buffer contains 25 mM HEPES, pH 7.4, 2.5 mM CaCl2, 1 mM MgCl2, 0.1% (w/v) bacitracin, 0.003% (w/v) TWEEN®-20, and Roche Complete™ Protease Inhibitors without EDTA. Peptides and GIP are thawed and 3 fold serially diluted in 100% DMSO (10 point concentration response curves). […] Plates are sealed and mixed on a plate shaker (setting 6) for 1 minute and read with a PerkinElmer Trilux MicroBeta® scintillation counter after 2.5 to 12 hours of incubation/settling time at room temperature.
Raw CPM data for concentration curves of peptides, Gcg, GLP-1, or GIP are converted to percent inhibition by subtracting nonspecific binding (binding in the presence of excess unlabeled Gcg, GLP-1, or GIP, respectively) from the individual CPM values and dividing by the total binding signal, also corrected by subtracting nonspecific binding. Data are analyzed using four-parameter (curve maximum, curve minimum, IC50, Hill slope) nonlinear regression routines (Genedata Screener, version 12.0.4, Genedata AG, Basal, Switzerland). […] Values for Ki are reported as the geometric mean, with error expressed as the standard error of the mean (SEM) and n is equal to the number of independent replicates (determined in assays performed on different days). Geometric Means are calculated as follows: […]
The Ki Ratio (Ki for native control peptide/Ki for test compound) at each receptor and each species is calculated. The Ki Ratio is a rapid indication of the apparent affinity of a peptide compared to the native control peptide.
n=⅟x means that only one value out of the total number of replicates (x) is used to express the mean. SEM is only calculated when n=2 or greater non-qualified results exist. Means are expressed as GeoMetric means with the standard error of the mean (SEM) and the number of replicates (n) indicated in parenthesis.

For another experiment, the target named is T2, hGIPR (Homo sapiens, UniProt P48546).
T2 construct: expressed in transfected cells
T2 sequence (P48546 22-466): T1 sequence (P48546 22-466)
Description: Functional cAMP formation (HTRF) in HEK-293 clonal cells expressing hGIPR, 0.1% bovine casein, without or with 1.0% human serum albumin. The format is cell-based. Particulars: for Emax: percent of maximal response to GIP(1-42)NH2; for EC50: cAMP, 0.1% bovine casein (no human serum albumin), geometric mean. In short, it runs like this:
(§1)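 Cells were stimulated with peptide for 30 min at 37° C, then intracellular cAMP was measured by competitive HTRF (665/620 nm ratio) and converted to nM using a cAMP standard curve. Relative EC50 and Emax came from four-parameter logistic fits of percent maximal response against peptide concentration.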
(In general: Cyclic AMP is a second messenger, typically raised through Gs and lowered through Gi signalling.)

In a further experiment the target is T3, hGCGR (Homo sapiens, UniProt P47871).
T3 construct: expressed in transfected cells
T3 sequence (P47871 26-477): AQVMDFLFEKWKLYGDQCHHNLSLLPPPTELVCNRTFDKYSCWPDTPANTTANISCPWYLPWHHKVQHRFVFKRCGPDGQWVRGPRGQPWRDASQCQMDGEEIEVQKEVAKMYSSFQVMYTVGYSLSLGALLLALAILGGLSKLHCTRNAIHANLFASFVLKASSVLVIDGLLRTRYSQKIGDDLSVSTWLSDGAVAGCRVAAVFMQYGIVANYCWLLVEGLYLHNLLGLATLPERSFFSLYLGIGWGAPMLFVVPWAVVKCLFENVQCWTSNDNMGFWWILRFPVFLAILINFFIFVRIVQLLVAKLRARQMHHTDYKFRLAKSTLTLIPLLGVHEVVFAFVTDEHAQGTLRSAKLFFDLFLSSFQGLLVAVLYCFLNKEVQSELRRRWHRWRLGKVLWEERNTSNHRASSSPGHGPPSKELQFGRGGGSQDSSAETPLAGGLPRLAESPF
Description: Functional cAMP formation (HTRF) in HEK-293 clonal cells expressing hGCGR, 0.1% bovine casein, without or with 1.0% human serum albumin. The settings on record: cAMP, 37° C. The experiment is classed as cell-based. In short, it runs like this:
as §1

The next experiment addresses hGLP-1R (Homo sapiens, UniProt P43220). The experiment in a line: Functional cAMP formation (HTRF) in HEK-293 clonal cells expressing hGLP-1R, 0.1% bovine casein, without or with 1.0% human serum albumin. The format is cell-based. Also noted: expressed in transfected cells. The settings on record: 37° C.; for Emax: HEK293, cAMP, 0.1% bovine casein and 1.0% human serum albumin, percent of maximal response to GLP-1(7-36)NH2, read-out: hGLP-1R Emax, % ± SEM; for EC50: cAMP, 0.1% bovine casein (no human serum albumin), geometric mean. In short, it runs like this: as §1

[2] abbreviates: HEK293, cAMP, 37° C., 0.1% bovine casein and 1.0% human serum albumin, read-out: hGIPR Emax, % ± SEM.
[3] abbreviates: 37° C., read-out: hGIPR EC50, nM (SEM, n).
The mark [4] stands for this setting: 0.1% bovine casein (no human serum albumin), geometric mean, read-out: hGCGR EC50, nM (SEM, n).
[5] abbreviates: 0.1% bovine casein and 1.0% human serum albumin, geometric mean (SEM, n), read-out: hGCGR EC50, nM (SEM, n).
Where [6] appears, read: read-out: hGLP-1R EC50, nM (SEM, n).

Structures are written as SMILES. pKi: −log10 of the molar value. Like-named read-outs stand apart in the source and are kept apart here.

hGLP-1R, sequence (P43220 24-463): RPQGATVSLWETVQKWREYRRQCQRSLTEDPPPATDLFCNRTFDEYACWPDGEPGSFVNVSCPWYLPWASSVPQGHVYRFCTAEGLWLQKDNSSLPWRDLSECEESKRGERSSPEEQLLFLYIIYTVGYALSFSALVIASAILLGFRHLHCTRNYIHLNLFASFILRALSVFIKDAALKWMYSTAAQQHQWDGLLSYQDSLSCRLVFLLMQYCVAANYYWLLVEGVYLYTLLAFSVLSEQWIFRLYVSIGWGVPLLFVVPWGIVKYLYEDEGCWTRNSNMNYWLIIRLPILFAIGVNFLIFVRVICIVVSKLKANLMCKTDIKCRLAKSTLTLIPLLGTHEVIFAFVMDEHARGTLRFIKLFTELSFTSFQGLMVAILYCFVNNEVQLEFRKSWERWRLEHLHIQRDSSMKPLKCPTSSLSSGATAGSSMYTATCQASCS

Consider `CC[C@H](C)[C@H](NC(=O)[C@H](CC(C)C)NC(=O)[C@](C)(Cc1ccc(O)cc1)NC(=O)[C@@H](CCC(=O)O)NC(=O)[C@@H](NC(=O)[C@H](Cc1ccccc1)NC(=O)[C@H](CCC(=O)O)NC(=O)C(C)(C)NC(=O)[C@H](CCC(N)=O)NC(=O)[C@H](C)NC(=O)[C@H](CCCCNC(=O)COCCOCCNC(=O)CCCCCCCNC(=O)CCCCCCCCCCCCC(=O)O)NC(=O)[C@H](CCCN)NC(=O)[C@H](CC(=O)O)NC(=O)[C@H](CC(C)C)NC(=O)[C@](C)(CC(C)C)NC(=O)[C@@H](NC(=O)C(C)(C)NC(=O)[C@H](Cc1ccncc1)NC(=O)[C@H](CC(=O)O)NC(=O)[C@H](CO)NC(=O)[C@@H](NC(=O)[C@](C)(Cc1ccccc1F)NC(=O)[C@@H](NC(=O)CNC(=O)[C@H](CCC(=O)O)NC(=O)C(C)(C)NC(=O)[C@@H](N)Cc1ccc(O)cc1)[C@@H](C)O)[C@@H](C)O)[C@@H](C)CC)[C@@H](C)CC)C(=O)N[C@@H](CCCCNC(=O)COCCOCCNC(=O)CCCCCCCNC(=O)CCCCCCCCCCCCC(=O)O)C(=O)NCC(=O)NCC(=O)N1CCC[C@H]1C(=O)N[C@@H](CO)C(=O)N[C@@H](CO)C(=O)NCC(=O)N[C@@H](C)C(=O)N1CCC[C@H]1C(=O)N1CCC[C@H]1C(=O)N1CCC[C@H]1C(=O)N[C@@H](CO)C(N)=O` [Example 465], for which the Ki in experiment [1] is 0.0464 nM. The maximum response (Emax) on hGIPR (setting [2]) came to 94.4%; at hGIPR (HEK293, cAMP, 37° C., 0.1% bovine casein, arithmetic mean, read-out: hGIPR Emax, % ± SEM), 94.9%; on hGLP-1R, 93.3%. Also, the EC50 at hGIPR (setting [3]) was 0.0174 nM; on hGCGR (setting [4]), more than 9950 nM; at hGCGR (setting [5]), more than 9950 nM; at hGLP-1R (setting [6]), 0.413 nM.
`CC[C@H](C)[C@H](NC(=O)[C@H](CC(C)C)NC(=O)[C@](C)(Cc1ccc(O)cc1)NC(=O)[C@H](CCCCNC(=O)COCCOCCNC(=O)COCCOCCNC(=O)CC[C@H](NC(=O)CCCCCCCCCOc1ccc(C(=O)O)cc1)C(=O)O)NC(=O)[C@@H](NC(=O)[C@H](Cc1ccccc1)NC(=O)[C@H](CCC(=O)O)NC(=O)C(C)(C)NC(=O)[C@H](CCC(N)=O)NC(=O)[C@H](C)NC(=O)[C@H](CCC(N)=O)NC(=O)[C@H](CCCN)NC(=O)[C@H](CC(=O)O)NC(=O)[C@H](CC(C)C)NC(=O)[C@](C)(CC(C)C)NC(=O)[C@@H](NC(=O)C(C)(C)NC(=O)[C@H](Cc1ccncc1)NC(=O)[C@H](CC(=O)O)NC(=O)[C@H](CO)NC(=O)[C@@H](NC(=O)[C@](C)(Cc1ccccc1F)NC(=O)[C@@H](NC(=O)CNC(=O)[C@H](CCC(=O)O)NC(=O)C(C)(C)NC(=O)[C@@H](N)Cc1ccc(O)cc1)[C@@H](C)O)[C@@H](C)O)[C@@H](C)CC)[C@@H](C)CC)C(=O)N[C@@H](CCCCNC(=O)COCCOCCNC(=O)COCCOCCNC(=O)CC[C@H](NC(=O)CCCCCCCCCOc1ccc(C(=O)O)cc1)C(=O)O)C(=O)NCC(=O)NCC(=O)N1CCC[C@H]1C(=O)N[C@@H](CO)C(=O)N[C@@H](CO)C(=O)NCC(=O)N[C@@H](C)C(=O)N1CCC[C@H]1C(=O)N1CCC[C@H]1C(=O)N1CCC[C@H]1C(=O)N[C@@H](CO)C(N)=O` [Example 403]: in experiment [1], the pKi is 10.43. The maximal response (Emax) turned out to be 91.7% at hGIPR (HEK293, read-out: hGIPR Emax, % ± SEM, cAMP, 37° C., 0.1% bovine casein and 1.0% human serum albumin); 98.1% on hGIPR (HEK293, read-out: hGIPR Emax, % ± SEM, cAMP, 37° C., 0.1% bovine casein, arithmetic mean). Moreover, the EC50 at hGIPR (hGIPR EC50, nM (SEM, n), 37° C.) was 0.00939 nM; on hGCGR (hGCGR EC50, nM (SEM, n), 0.1% bovine casein (no human serum albumin), geometric mean), more than 9950 nM; at hGCGR (hGCGR EC50, nM (SEM, n), 0.1% bovine casein and 1.0% human serum albumin, geometric mean (SEM, n)), more than 9950 nM; on hGLP-1R (hGLP-1R EC50, nM (SEM, n)) it was 0.175 nM.
For `CCCCCCCCCCCC(=O)N[C@@H](CCC(=O)NCCOCCOCC(=O)NCCOCCOCC(=O)NCCCC[C@H](NC(=O)[C@H](CCCN)NC(=O)[C@H](CC(=O)O)NC(=O)[C@H](CC(C)C)NC(=O)[C@](C)(CC(C)C)NC(=O)[C@@H](NC(=O)C(C)(C)NC(=O)[C@H](Cc1ccncc1)NC(=O)[C@H](CC(=O)O)NC(=O)[C@H](CO)NC(=O)[C@@H](NC(=O)[C@](C)(Cc1ccccc1F)NC(=O)[C@@H](NC(=O)CNC(=O)[C@H](CCC(=O)O)NC(=O)C(C)(C)NC(=O)[C@@H](N)Cc1ccc(O)cc1)[C@@H](C)O)[C@@H](C)O)[C@@H](C)CC)C(=O)N[C@@H](C)C(=O)N[C@@H](CCC(N)=O)C(=O)NC(C)(C)C(=O)N[C@@H](CCC(=O)O)C(=O)N[C@@H](Cc1ccccc1)C(=O)N[C@H](C(=O)N[C@H](CCC(=O)O)C(=O)N[C@@](C)(Cc1ccc(O)cc1)C(=O)N[C@@H](CC(C)C)C(=O)N[C@H](C(=O)N[C@@H](CCCCNC(=O)COCCOCCNC(=O)COCCOCCNC(=O)CC[C@H](NC(=O)CCCCCCCCCCC)C(=O)O)C(=O)NCC(=O)NCC(=O)N1CCC[C@H]1C(=O)N[C@@H](CO)C(=O)N[C@@H](CO)C(=O)NCC(=O)N[C@@H](C)C(=O)N1CCC[C@H]1C(=O)N1CCC[C@H]1C(=O)N1CCC[C@H]1C(=O)N[C@@H](CO)C(N)=O)[C@@H](C)CC)[C@@H](C)CC)C(=O)O` [Example 334], the Ki in experiment [1] came out at 0.0195 nM. Moreover, the maximal response (Emax) on hGIPR (setting [2]) amounted to 89%; on hGLP-1R, 105%. In addition, the EC50 was 0.00987 nM on hGIPR (setting [3]), more than 9950 nM on hGCGR (setting [4]), more than 9950 nM on hGCGR (setting [5]) and 0.131 nM on hGLP-1R (setting [6]).

Usually Ki stands for the dissociation constant of the complex between target and ligand, obtained from inhibition or displacement. Broadly, the Emax is the maximal effect, on the per cent scale that the assay sets. The EC50 is the concentration that produces a half-maximal response. The pKi is the negative decadic logarithm of the Ki, by convention in mol/L. A low value points to a large Ki.
